The values that follow come from patent US7399587B2, “Canine CYP1A2 genetic polymorphism” (Astellas Pharma Inc., priority 2003, dated 2008).

The data set can be described thus: Pharmacokinetics test in beagles after oral administration of Compound A (plasma, HPLC-FL method). Format: in vivo, beagle. Conditions: for AUC(0-inf) / Cmax / half-life: plasma, po, 0.3 mg/kg. As for the experimental part:
In this example, after oral administration of Compound A, a pharmacokinetics test was carried out, in accordance with the following procedure. In the test, a time course of changes in concentrations of the unreacted compound and metabolites was measured.
Compound A was suspended in 0.5% methyl cellulose solution, and the suspension was orally administered to 10 male beagles (0.3 mg/kg). Blood was collected from each subject after 0.25, 0.5, 1.0, 2.0, 4.0, and 8.0 hours from the administration. Plasma was extracted by liquid-liquid extraction, and then, a time course of changes in concentrations of the unreacted compound and metabolites in plasma was measured according to a simultaneous measurement method (hereinafter referred to as HPLC-FL method) using HPLC and a fluorescence detector.
Conditions in the HPLC-FL method measuring Compound A and metabolites simultaneously are shown in Table 9, and concentration gradients of mobile phases are shown in Table 10.
The beagles for the pharmacokinetics test used in this example were previously selected by carrying out a phenotype analysis. In the pharmacokinetics test, 5 dogs (type I) in which the major metabolite was MM-2, and 5 dogs (type II) in which the major metabolites were MM-1 and MM-5, were used. The time course of changes in concentrations of Compound A and metabolites thereof in plasma are shown in Table 1 (type I) and Table 2 (type II)
As pharmacokinetic parameters, time of maximum observed concentration (Tmax), concentration corresponding to Tmax (Cmax), area under the plasma concentration-time curve from the time of dosing extrapolated to infinity (AUCinf), and terminal half-life (T1/2) were calculated.

[1] abbreviates: male, beagle, dog, type I (EM) beagles, n = 5, plasma after oral Compound A 0.3 mg/kg.
[2] abbreviates: male, beagle, dog, type II (PM) beagles, n = 5, plasma after oral Compound A 0.3 mg/kg.
The mark [3] stands for this setting: unreacted compound in plasma, oral 0.3 mg/kg, type II (PM) vs type I (EM) beagles.

Each structure is given as a SMILES string.

As a reminder, the AUC(0-inf) is total exposure, with the tail of the curve extrapolated. By Cmax is commonly meant the maximum level reached in the sampled fluid or tissue. A word on the half-life: it is the time needed for the level to fall by half in the phase considered. By Tmax is commonly meant the time at which the peak concentration occurs. Turning to `CCn1c(=O)nc(C2CCCCC2)c2ccc(C)nc21` [Compound A, 4-cyclohexyl-1-ethyl-7-methylpyrido[2,3-d]pyrimidin-2(1H)-one], under setting [1], the area under the curve AUC(0-inf) came to 2.8 ± 1.6 ng·h/mL, the concentration peaked (Cmax) at 3.2 ± 1.5 ng/mL, the half-life was 36 ± 12 min and the Tmax is 18 min. In addition, under setting [2], the AUC(0-inf) came out at 27.2 ± 20.2 ng·h/mL, the Cmax was 24 ± 14.8 ng/mL and the half-life is 48 ± 24 min. In addition, under setting [3], the “AUCinf of type II relative to type I” value was 9.7 times and the “Cmax of type II relative to type I” value is listed as 7.5 times.
